Measurements taken from patent US11912688B2, “1, 3-dioxolane derivative” (TOHOKU UNIVERSITY, priority 2019, dated 2024).

Columns and labels:
iNOS transgenic mice [1] = assay: Test using mice developing diabetic nephropathy (iNOS transgenic mice); assay type: in vivo, mouse; conditions: 6 mg/kg/day oral
Source text: iNOS transgenic mice (Takamura T. et al., J Biol Chem. 1998; 273: 2493-2496; received from Emeritus Professor Hiroshi Okamoto, Tohoku University) were used as model mice. According to the literature of Takamura et al., breeding in which 4-week-old model mice (experimental group: n=8, control group: n=6) and a wild type group (n=8), which is non-transgenic mice born simultaneously with the model mice by mating iNOS transgenic mice and wild type (CD1 (ICR)) mice, were fed with high protein and high calorie diets was performed for 13 weeks. Compound 12 (D-532) was further orally administered to the experimental group in 6 mg/kg/day. As to the groups, the body weights were measured every day, and the blood sugar levels, the albumin in urine, and the creatinine in urine were measured in accordance with the usual method every 3 weeks. The groups were sacrificed after the breeding, the serum creatinine in the blood collected from the abdominal vena cava at the time of dissection was measured, and the gene expression in the kidneys collected at the time of dissection was analyzed. The kidney tissues were stained with HE and PAS and observed.
Further, the […] tissue section images were subjected to ImageJ (http://imagej.nih.gov/ij/) and measured according to the operation manual attached to ImageJ. When each glomerulus area (each group, n=100) and an area obtained by excluding regions of no interest such as vascular lumens and nuclei from the each glomerulus area were found, and the ratio therebetween, namely the PAS-positive area ratio in glomeruli, was found, the ratio increased in the model mice, and the improvement was meanwhile confirmed in the administered group.

ChREBP [2] = assay: ChREBP target gene expression analysis in the kidney by quantitative PCR (db/db mice); assay type: in vivo, mouse; conditions: db/db mice of Test Example 7, quantitative PCR
Method: (§1) In the mice used in Test Example 3, the expression variations of ChREBPβ and the TXNIP genes, which are target genes of ChREBP in the kidney, were analyzed by quantitative PCR in the method of the previous report (Genes to Cells 19 (2013) 52-65). The following primer set was used for the amplification of ChREBPβ.
In the mice used in Test Example 7, ChREBP target gene expression analysis was performed by the same method as in Test Example 4. FIG. 22 and FIG. 23 show the results.

ChREBP [3] = assay: ChREBP target gene expression analysis in the kidney by quantitative PCR (iNOS mice); assay type: in vivo, mouse; conditions: iNOS mice of Test Example 3, quantitative PCR
Method: as §1
A primer set used for the amplification of the TXNIP gene is as mentioned above.

db/db mice = assay: Relationship between blood sugar level and amount of albumin excreted in urine (ACR), regression lines, db/db mice; assay type: in vivo, mouse; conditions: experimental vs control group, least squares regression, FIG. 25
Source text: As to the blood sugar levels and the amounts of albumin excreted in urine (ACR) of the experimental group and the control group (non-administered group of db/db mice) in Test Example 7, a scatter diagram was created using SPSS, which is statistical analysis software, so that the abscissa axis is the blood sugar level, and the ordinate axis is the ACR, and regression lines (linear approximation by the least squares method) were found.

iNOS transgenic mice [4] = assay: Observation of mouse kidney tissues by transmission electron microscope (iNOS mice); assay type: in vivo; conditions: iNOS mice of Test Example 3, transmission electron microscope; FIG. 16C
Method: The kidneys of model mice in the administered group and the non-administered group, and a mouse in the wild type group in Test Example 3 were placed in a prefixing solution containing 2% PFA (FUJIFILM Wako Pure Chemical Corporation; 163-20145)/2.5% glutaraldehyde (TAAB Laboratories Equipment Ltd.; G017/1)/0.1 M cacodylate buffer solution (FUJIFILM Wako Pure Chemical Corporation; 036-18175) and treated at room temperature for 2 hours. The prefixed kidneys were washed with 0.1 M cacodylate buffer solution (containing 8% sucrose (FUJIFILM Wako Pure Chemical Corporation: 196-00015)) on ice for 15 minutes×4 times and treated with postfixing solution containing 1% osmium tetroxide (FUJIFILM Wako Pure Chemical Corporation; 154-01014) on ice for 90 minutes. The postfixed kidneys were washed with ultrapure water for 15 minutes×3 times, placed in aqueous 50, 60, 70, 80, 90, and 95% ethanol solutions each for 10 minutes×1 time, further in 100% ethanol for 20 minutes×3 times, and subjected to ethanol dehydration. […]

Structure (SMILES): c1ccc(COC[C@H]2CO[C@@](Cn3nnc4ccccc43)(c3ccccc3)O2)cc1 [Example D-532, 1-(((2S,4S)-4-((benzyloxy)methyl)-2-phenyl-1,3-dioxolan-2-yl)methyl)-1H-benzo[d][1,2,3]triazole]
- blood sugar level (iNOS transgenic mice [1]; 13 weeks, vs control group, FIG. 4): significantly low value as compared with the control group
- amount of albumin excreted in urine (iNOS transgenic mice [1]; 13 weeks, vs control group, FIG. 5): significant low value
- increase in blood creatinine (iNOS transgenic mice [1]; at dissection, FIG. 6): significantly improved
- expression of ChREBPβ gene in the kidney (ChREBP [2]; FIG. 22): Decrease in the expression
- expression of TXNIP gene in the kidney (ChREBP [2]; FIG. 23): Decrease in the expression
- expression of ChREBPβ gene in the kidney (ChREBP [3]; FIG. 10): decrease in expression
- expression of TXNIP gene in the kidney (ChREBP [3]; FIG. 11): decrease in expression
- effect on ACR relative to blood sugar level (gradient of the regression line) (db/db mice): direct effect on the kidney
- structure of foot processes in kidney tissue (iNOS transgenic mice [4]): suppressed the structural change of the foot processes
